Format in all cases: in vivo
Assay [1] relates to CYPIR (Cyperus iria L., rice flatsedge). As to the kind of experiment: Postemergence foliar-applied herbicidal mixtures, direct seeded rice, greenhouse (Example I). The text has this:
(§1) Seeds or nutlets of the desired test plant species were planted in a soil matrix prepared by mixing a loam or sandy loam soil (e.g., 28.6 percent silt, 18.8 percent clay, and 52.6 percent sand, with a pH of about 5.8 and an organic matter content of about 1.8 percent) and calcareous grit in an 80 to 20 ratio. The soil matrix was contained in plastic pots with a volume of 1 quart and a surface area of 83.6 square centimeters (cm^2). When required to ensure good germination and healthy plants, a fungicide treatment and/or other chemical or physical treatment was applied. The plants were grown for 8-22 days in a greenhouse with an approximate 14 h photoperiod which was maintained at about 29° C. during the day and about 26° C. during the night. Nutrients (Peters Excel® 15-5-15 5-Ca 2-Mg and iron chelate) were applied in the irrigation solution as needed and water was added on a regular basis. Supplemental lighting was provided with overhead metal halide 1000-Watt lamps as necessary. The plants were employed for testing when they reached the first through fourth true leaf stage.
(§2) Treatments consisted of the acid or esters of 4-amino-3-chloro-5-fluoro-6-(4-chloro-2-fluoro-3-methoxy-phenyl)pyridine-2-carboxylic acid (Compound A), each formulated as an SC (suspension concentrate), and various herbicidal components alone and in combination. Forms of compound A were applied on an acid equivalent basis.
(§3) Other herbicidal components were applied on an active ingredient basis and included acetolactate synthase (ALS)-inhibiting herbicides (sulfonamide chemical class) penoxsulam formulated as Grasp® SC, diclosulam formulated as Strongarm®, and cloransulam-methyl formulated as FirstRate®, flumetsulam formulated as Flumetsulam WG, and metosulam formulated as Eclipse®.
(§4) Treatment requirements were calculated based upon the rates being tested, the concentration of active ingredient or acid equivalent in the formulation, and a 12 mL application volume at a rate of 187 L/ha.
(§5) For treatments comprised of formulated compounds, measured amounts of compounds were placed individually in 25 mL glass vials and diluted in a volume of 1.25% (v/v) Agri-Dex® crop oil concentrated to obtain 12× stock solutions. […] Application solutions were prepared by adding an appropriate amount of each stock solution (e.g., 1 mL) and diluted to the appropriate final concentrations with the addition of 10 mL of an aqueous mixture of 1.25% (v/v) crop oil concentrate so that the final spray solutions contained 1.25+/−0.05% (v/v) crop oil concentrate.
(§6) All stock solutions and applications solutions were visually inspected for compound compatibility prior to application. Spray solutions were applied to the plant material with an overhead Mandel track sprayer equipped with an 8002E nozzle calibrated to deliver 187 L/ha over an application area of 0.503 m^2 at a spray height of 18 to 20 inches (46 to 50 cm) above average plant canopy height. Control plants were sprayed in the same manner with the solvent blank.
(§7) The treated plants and control plants were placed in a greenhouse as described above and watered by sub-irrigation to prevent wash-off of the test compounds. After approximately 3 weeks, the condition of the test plants as compared with that of the untreated plants was determined visually and scored on a scale of 0 to 100 percent where 0 corresponds to no injury or growth inhibition and 100 corresponds to complete kill.
(§8) Colby's equation was used to determine the herbicidal effects expected from the mixtures (Colby, S. R. 1967. Calculation of the synergistic and antagonistic response of herbicide combinations. Weeds 15:20-22.).
(§9) The following equation was used to calculate the expected activity of mixtures containing two active ingredients, A and B: Expected=A+B−(A×B/100)

For assay [2], the system named is DIGSA (Digitaria sanguinalis (L.) Scop., large crabgrass). Described as above.
Excerpt: as §1, §2, §3, §4, §5, §6, §7, §8, §9

Assay [3] has as its system LEFCH (Leptochloa chinensis (L.) Nees, Chinese sprangletop). The description is as above.
Excerpt: as §1, §2, §3, §4, §5, §6, §7, §8, §9

Assay [4] has as its system CYPDI (Cyperus difformis L., smallflower umbrella sedge). The assay is described as follows: In-water applied herbicidal mixtures, transplanted paddy rice, greenhouse (Example II). The procedure: (§10) Weed seeds or nutlets of the desired test plant species were planted in puddled soil (mud) prepared by mixing a shredded, non-sterilized mineral soil (50.5 percent silt, 25.5 percent clay, and 24 percent sand, with a pH of about 7.6 and an organic matter content of about 2.9 percent) and water at a 1:1 volumetric ratio. The prepared mud was dispensed in 365 mL aliquots into 16-ounce (oz.) non-perforated plastic pots with a surface area of 86.59 square centimeters (cm^2) leaving a headspace of 3 centimeters in each pot. Mud was allowed to dry overnight prior to planting or transplanting. Rice seeds were planted in Sun Gro MetroMix® 306 planting mixture, which typically has a pH of 6.0 to 6.8 and an organic matter content of about 30 percent, in plastic plug trays. Seedlings at the second or third leaf stage of growth were transplanted into 840 mL of mud contained in 32-oz. non-perforated plastic pots with a surface area of 86.59 cm^2 4 days prior to herbicide application. The paddy was created by filling the headspace of the pots with 2.5 to 3 cm of water. When required to ensure good germination and healthy plants, a fungicide treatment and/or other chemical or physical treatment was applied. The plants were grown for 4-22 days in a greenhouse with an approximate 14 h photoperiod which was maintained at about 29′C during the day and about 26° C. during the night. Nutrients were added as Osmocote® (19:6:12, N:P:K+minor nutrients) at 2 g per 16-oz. pot and 4 g per 32-oz. pot. Water was added on a regular basis to maintain the paddy flood, and supplemental lighting was provided with overhead metal halide 1000-Watt lamps as necessary. The plants were employed for testing when they reached the first through fourth true leaf stage.
(§11) Treatments consisted of the acid or esters of 4-amino-3-chloro-5-fluoro-6-(4-chloro-2-fluoro-3-methoxy-phenyl)pyridine-2-carboxylic acid (compound A) each formulated as an SC and various herbicidal components alone and in combination. Forms of compound A were applied on an acid equivalent basis.
(§12) Other herbicidal components were applied on an active ingredient basis and included acetolactate synthase (ALS)-inhibiting herbicides (sulfonamide chemical class) penoxsulam formulated as Grasp® SC (GF-443), diclosulam formulated as Strongarm®, and cloransulam-methyl formulated as FirstRate®.
(§13) Treatment requirements for each compound or herbicidal component were calculated based upon the rates being tested, the concentration of active ingredient or acid equivalent in the formulation, an application volume of 2 mL per component per pot, and an application area of 86.59 cm^2 per pot.
(§14) For formulated compounds, a measured amount was placed in an individual 100 or 200 mL glass vial and was dissolved in a volume of 1.25% (v/v) Agri-Dex® crop oil concentrate to obtain each application solution.
(§15) Applications were made by injecting with a pipetter appropriate amounts of the application solutions, individually and sequentially, into the aqueous layer of the paddy. Control plants were treated in the same manner with the solvent blank. Applications were made so that all treated plant material received the same concentrations of acetone and crop oil concentrate.
(§16) The treated plants and control plants were placed in a greenhouse as described above and water was added as needed to maintain a paddy flood. After approximately 3 weeks the condition of the test plants as compared with that of the untreated plants was determined visually and scored on a scale of 0 to 100 percent where 0 corresponds to no injury or growth inhibition and 100 corresponds to complete kill.
as §8, §9

In assay [5] the test system is FIMMI (Fimbristylis miliacea (L.) Vahl, globe fringerush). The description is as above. The procedure: as §10, §11, §12, §13, §14, §15, §16, §8, §9
The test system of assay [6] is ECHCG (Echinochloa crusgalli (L.) Beauv., barnyardgrass). Described as above. The procedure:
as §10, §11, §12, §13, §14, §15, §16, §8, §9

In assay [7] the test system is IPOHE (Ipomoea hederacea Jacq., ivyleaf morningglory). As to the kind of experiment: Postemergence foliar-applied herbicidal mixtures, direct seeded rice, greenhouse (Example I).
Excerpt: as §1, §2, §3, §4, §5, §6, §7, §8, §9

For assay [8], the system named is CYPRO (Cyperus rotundus L., purple nutsedge). The assay is described as follows: In-water applied herbicidal mixtures, transplanted paddy rice, greenhouse (Example II). The conditions noted are these: Compound A Acid 8.75 gae/ha. The procedure: as §10, §11, §12, §13, §14, §15, §16, §8, §9
Assay [9] has as its system LEFCH (Leptochloa chinensis (L.) Nees, Chinese sprangletop). The assay is described as above. The procedure:
as §10, §11, §12, §13, §14, §15, §16, §8, §9

These results are taken from patent US8906825B2, “Herbicidal compositions comprising 4-amino-3-chloro-5-fluoro-6-(4-chloro-2-fluoro-3-methoxyphenyl) pyridine-2-carboxylic acid or a derivative thereof and triazolopyrimidine sulfonamides” (Dow AgroSciences LLC, priority 2012, dated 2014).

For `CCOc1nc(F)cc2nc(S(=O)(=O)Nc3c(Cl)cccc3C(=O)OC)nn12` [Cloransulam-methyl, methyl 3-chloro-2-[[(5-ethoxy-7-fluoro[1,2,4]triazolo[1,5-c]pyrimidin-2-yl)sulfonyl]amino]benzoate, reference compound], the “Visual Weed Control (%) - 20 DAA CYPIR Obs” value in assay [1] (Cloransulam-methyl 4.38 gai/ha) was determined as 70%; in [1] (Cloransulam-methyl 8.75 gai/ha) it was 85%. Further, in [2] (Cloransulam-methyl 2.19 gai/ha), the “Visual Weed Control (%) - 20 DAA DIGSA Obs” value was 10%. In addition, the “Visual Weed Control (%) - 20 DAA LEFCH Obs” value in assay [3] (Cloransulam-methyl 2.19 gai/ha, Table 7) amounted to 0%; in assay [3] (Cloransulam-methyl 4.38 gai/ha, Table 6) it was 0%; in assay [3] (Cloransulam-methyl 4.38 gai/ha, Table 7) it was 0%; in assay [3] (Cloransulam-methyl 8.75 gai/ha, Table 6), 0%. Further, the “Visual Weed Control (%) - 21 DAA CYPDI Obs” value in assay [4] (Cloransulam-methyl 17.5 gai/ha) is given as 40%; in assay [4] (Cloransulam-methyl 35 gai/ha), 80%. In addition, the “Visual Weed Control (%) - 21 DAA FIMMI Obs” value in assay [5] (Cloransulam-methyl 17.5 gai/ha, Table 14) was 40%; in assay [5] (Cloransulam-methyl 17.5 gai/ha, Table 15), 40%; in assay [5] (Cloransulam-methyl 35 gai/ha, Table 14), 60%; in assay [5] (Cloransulam-methyl 35 gai/ha, Table 15) it was 60%. Further, in [6] (Cloransulam-methyl 17.5 gai/ha), the “Visual Weed Control (%) - 22 DAA ECHCG Obs” value was 50%.

With `COc1c(Cl)ccc(-c2nc(C(=O)O)c(Cl)c(N)c2F)c1F` [Compound A Acid, 4-amino-3-chloro-5-fluoro-6-(4-chloro-2-fluoro-3-methoxy-phenyl)pyridine-2-carboxylic acid], the “Visual Weed Control (%) - 27 DAA IPOHE Obs” value in assay [7] (Compound A Acid 4.38 gae/ha), in assay [7] (Compound A Acid 8.75 gae/ha) and in assay [7] (Compound A Acid 17.5 gae/ha) was 10% throughout. Moreover, the entries for the “Visual Weed Control (%) - 20 DAA DIGSA Obs” value in assay [2] (Compound A Acid 5.3 gae/ha), in [2] (Compound A Acid 10.6 gae/ha) and in assay [2] (Compound A Acid 21.2 gae/ha) were 10%, 20% and 20%, respectively. Besides, the “Visual Weed Control (%) - 20 DAA LEFCH Obs” value in [3] (Compound A Acid 4.38 gae/ha) is recorded as 15%; in assay [3] (Compound A Acid 5.3 gae/ha), 0%; in assay [3] (Compound A Acid 8.75 gae/ha), 30%; in [3] (Compound A Acid 10.6 gae/ha) it was 10%; in [3] (Compound A Acid 17.5 gae/ha) it was 50%; in assay [3] (Compound A Acid 21.2 gae/ha) it was 15%. In assay [3] (Compound A Acid 19.4 gae/ha), the “Visual Weed Control (%) - 19 DAA LEFCH Obs” value was 5%. For the same compound, the “Visual Weed Control (%) - 21 DAA CYPDI Obs” value in assay [4] (Compound A Acid 16 gae/ha) is 30%. Also, in assay [8], the “Visual Weed Control (%) - 21 DAA CYPRO Obs” value was 0%. Moreover, the “Visual Weed Control (%) - 21 DAA FIMMI Obs” value in [5] (Compound A Acid 16 gae/ha) and in assay [5] (Compound A Acid 32 gae/ha) was 20% throughout. The entries for the “Visual Weed Control (%) - 25 DAA LEFCH Obs” value in assay [9] (Compound A Acid 8.75 gae/ha), in assay [9] (Compound A Acid 17.5 gae/ha) and in assay [9] (Compound A Acid 35 gae/ha) were 50%, 50% and 85%, respectively. Further, the “Visual Weed Control (%) - 22 DAA ECHCG Obs” value came out at 20% in assay [6] (Compound A Acid 16 gae/ha) and 25% in assay [6] (Compound A Acid 32 gae/ha).
